Experimental data published in patent US6291496A, “Treating cancers associated with overexpression of class I family of receptor tyrosine kinases” (priority 1999, dated 2001).

Tests used:
[1] = test system: HER-2/neu in 184B5/HER cells; test: immunoblot for HER-2/neu in 184B5/HER cells; assay type: cell-based, human; settings: 25 μM ciglitazone or 20 μM 15-d-PGJ2, 24 hours
Description: The 184B5/HER cell line was obtained from a collaborator and was derived by stably transfecting 184B5 cells with a mutationally activated HER-2/neu oncogene; these cells form rapidly growing tumors when injected into athymic nude mice. The 184B5/HER cell line is described in Pierce, J. H., et al., Oncogene 6, 1189-1194 (1991). The BT-474 cell line is a human breast cancer adenocarcinoma cell line which overexpresses HER-2/neu, and was obtained from the American Type Culture Collection (Manassas, Va.) and bears accession number ATCC HBT-20.
184B5/HER cells were maintained in MEM-KBM mixed in a ratio of 1:1 (basal medium) containing epidermal growth factor (10 ng/ml), hydrocortisone (0.5 μg/ml), transferrin (10 μg/ml), gentamicin (5 μg/ml) and insulin (10 μg/ml) (growth medium). […] cells were grown to 60% confluence, trypsinized with 0.05% trypsin-2 mM ethylenediaminotetraacetic acid, and plated for experimental use. […]
184B5/HER cells were treated with vehicle (0.01% dimethylsulfoxide), 25 μM ciglitazone (Biomol, Plymouth Meeting, Pennsylvania) or 20 μM 15-d-PGJ2 (Biomol, Plymouth Meeting, Pennsylvania) for 24 hours. […] The protein concentration of the supernatant was measured by the method of Lowry, O. H., et al, J. Biol. Chem. 193, 265-275 (1951). […]

[2] = test system: Stage IV EGFR positive breast cancer tumors; test: Example VIII: breast cancer with Stage IV EGFR positive tumors; assay type: in vivo, human; settings: oral 5 mg/kg twice daily in combination with CETUXIMAB and Taxol
[3] = test system: EGFR positive breast cancer; test: Example IX: adjuvant therapy after mastectomy; assay type: in vivo, human; settings: patient, oral 5 mg/kg twice daily for five years after mastectomy
HER-2/neu promoter = test: transient transfection assay, human HER-2/neu promoter construct ligated to luciferase, 184B5/HER cells; assay type: cell-based; settings: 0-25 μM, 24 hours, FIG. 1
Protocol: To determine whether PPARγ ligands inhibit HER-2/neu promoter activity, a transient transfection assay was performed. 184B5/HER cells were transfected with 1.8 μg of a human HER-21neu promoter construct ligated to luciferase (-1571/--24) and 0.2 μg pSVβgal (Promega Corp., Madison Wis.). The HER-2/neu promoter (-1571/--24) is described in Hudson, L. G. et al, J. Biol. Chem. 265, 4389-4393 (3/90), the whole of which is incorporated herein by reference. The promoter constructs are described in Hudson, L. G., et al, Cell 62, 1165-1175(1990). 184B5/HER cells were seeded at a density of5×10^4 cells well in 6-well dishes and grown to 50-60% confluence. For each well, 2 μg of […] DNA were introduced into cells using 8 μg of LIPOFECTAMINE (Life Technologies, Inc., Grand Island, N.Y.) as per the manufacturer's instructions. Following transfection, the cells were treated with ciglitazone (0, 5, 10, 15, 20 and 25 μM) or 15d-PGJ2 (0, 5, 10, 15, 20 and 25 μM) for 24 hours.
The activities of luciferase and β-galactosidase were measured in cellular extract as described in Mestre, J. R. et al, Cancer Res. 57, 1081-1085 (1997).

HER-2/neu mRNA = test: Northern blotting for HER-2/neu mRNA in 184B5/HER cells; assay type: cell-based, human; settings: 25 μM ciglitazone or 20 μM 15-d-PGJ2
Protocol: Northern blotting was performed to evaluate whether PPARγ ligands decrease levels of HER-2/neu mRNA. 184B5/HER cells were treated with vehicle (0.01% dimethyl sulfoxide), 25 μM ciglitazone or 20 μM 15-d-PGJ2. Total cellular RNA was isolated from cell monolayers using an RNA isolation kit from Qiagen Inc. 10 μg of RNA was added to each lane. The 10 μg of total cellular RNA per lane were electrophoresed in a formaldehyde-containing 1.2% agarose gel and transferred to nylon-supported membranes. The blot was hybridized with probes that recognized HER-2/neu mRNA (Santa Cruz Biotechnology, Inc., Santa Cruz, Calif.) and 18S rRNA cDNA (Ambion, Inc., Austin, Tex.).

[4] = test system: HER-2/neu positive breast cancer; test: Example II: adjuvant therapy with PPARγ ligand and HERCEPTIN; assay type: in vivo, human; settings: patient, oral 5 mg/kg twice daily for one year, with HERCEPTIN 250 mg IV loading then 10 weekly doses of 125 mg
EGFR promoter = test: transient transfection assay, human EGFR promoter construct ligated to luciferase, 184B5 cells; assay type: cell-based; settings: 0-25 μM, 24 hours, FIG. 2
Protocol: To determine whether PPARγ ligands inhibit EGFR promoter activity, a transient transfection assay was performed, 184B5 cells were transfected with 1.8 μg of a human EGFR promoter construct ligated luciferase (-1100/-19) and 0.2 μg pSVβgal (Promega Corp., Madison, Wis.). The EGFR promoter is described in Hudson, L. G., et al, Cell 62, 1165-1175 (1990), the whole of which is incorporated herein by reference. 184B5 cells were seeded at a density of 5×10^4 cells/well in 6-well dishes and grown to 50-60% confluence. For each well 2 μg of […] DNA were introduced into cells using 8 μg of LIPOFECTAMINE (Life Technologies, Inc., Grand Island, N.Y.) as per the manufacturers instructions. Following transfection, the cells were treated with ciglitazone (0, 5, 10, 15, 20 and 25 μM) or 15-d-PGJ2 (0, 5, 10, 15, 20, and 25 μM) for 24 hours. The activities of luciferase and β-galactosidase were measured in cellular extract as described in Mestre, J. R, et al, Cancer Res. 57, 1081-1085 (1997). The results are shown in FIG. 2 where luciferase activity represents data that have been normalized to β-galactosidase activity (columns, means; bars, S. D., n=6; * means p<0.01 compared to control).

[5] = test system: HER-2/neu positive colon cancer; test: Example V: after resection of colon cancer; assay type: in vivo, human; settings: patient, oral 5 mg/kg twice daily for five years after resection

CC1(COc2ccc(CC3SC(=O)NC3=O)cc2)CCCCC1 (centres unmarked) [ciglitazone]
amount of HER-2/neu (immunoblot) [1]: decreased the amount of HER-2/neu
tumor burden [2]: reduced tumor burden
recurrence of breast cancer [3]: Recurrence of breast cancer dose not occur
HER-2/neu promoter activity (luciferase normalized to β-galactosidase) (HER-2/neu promoter): inhibited HER-2 neu promoter activity in a dose-dependent fashion
amounts of HER-2/neu mRNA (Northern blot) (HER-2/neu mRNA): decrease amounts of HER-2/neu mRNA
recurrence of breast cancer [4]: Recurrence of breast cancer does not occur
EGFR promoter activity (luciferase normalized to β-galactosidase) (EGFR promoter): inhibited EGFR promoter activity in a dose-dependent fashion
recurrence of colon cancer [5]: Recurrence of colon cancer does not occur
